Data published in US20260021119A1, “TETRACYCLINE DERIVATIVES” (ICM (INSTITUT DU CERVEAU ET DE LA MOELLE ÉPINIÈRE), priority 2022, published 2026).
In brackets after ≈: the same amount, converted by molar mass. Read-outs that look alike come from different tables or passages of the source.

Columns and labels:
alpha-synuclein = alpha-synuclein (Homo sapiens, UniProt P37840); assay: alpha-synuclein aggregation, thioflavin T (ThT) fluorescence; type: biochemical; conditions: 20 μM
Description: The antiaggregant effect of the compound of formula (Ia) according to the present invention on alpha-synuclein (αS) was evaluated in vitro by measuring the fluorescence intensity of the probe thioflavin T (ThT), a molecule that specifically binds to cross-β structures characteristic of amyloid-like aggregation. The compound of formula (Ia) was dissolved in dimethylsulfoxide to reach a concentration of […]. In this assay, 70 μM of alpha-synuclein was incubated with and without 10 μM, 20 μM and 50 μM of the compound of formula (Ia), under orbital agitation (600 rpm), at 37° C., for 5 days. After the incubation time, Tht was added to each sample and changes in the emission fluorescence spectra (λex=450 and λem=[…]) was monitored using a Horiba Fluoromax CP4 spectrofluorometer.

E. coli ATCC 25922 = assay: MIC, broth dilution (Example 3); type: cell-based; conditions: Escherichia coli, ATCC25922; 18 h at 37° C., MH broth
Description: (§1) Bacterial strains used in this study were: S. aureus (ATCC25923), E. coli (ATCC25922), E. faecalis (ATCC29212) and P. aeruginosa (PA01). Strains were maintained at −80° C. in 15% (v/v) glycerol for cryoprotection. Bacteria were routinely grown in Mueller-Hinton (MH) broth at 37° C.
(§2) The susceptibility of bacterial strains to antibiotics and compounds was determined in microplates using the standard broth dilution method in accordance with the recommendations of the Comité de 1′Antibiogramme de la Société Française de Microbiologie (CA-SFM). (Members of the SFM Antibiogram Committee, R. Int. J. Antimicrob. Agents 2003, 21, 364). Briefly, the Minimal Inhibitory Concentrations (MICs) were determined with an inoculum of 10^5 CFU in 200 μL of MH broth containing two-fold serial dilutions of each drug. […] To determine all MICs, the measurements were independently repeated in triplicate.
(§3) The compound of formula (Ia) according to the invention was tested against clinical isolates Gram-bacteria (P. aeruginosa, E. coli) and Gram+ bacteria (S. aureus, E. faecalis). Minimum inhibitory concentrations (MIC) were tentatively determined and compared to known antibiotic tetracyclines (doxycycline, demeclocycline, chlortetracycline) and to the compound of formula (B) disclosed in Example 1 of the present application. The test was reproduced twice and the average MIC were calculated.

E. faecalis ATCC 29212 [1] = assay: MIC, broth dilution (Example 3); type: cell-based; conditions: Enterococcus faecalis, ATCC29212; 18 h at 37° C., MH broth
Description: as §1, §2, §3

P. aeruginosa PA01 [2] = assay: MIC, broth dilution (Example 3); type: cell-based; conditions: Pseudomonas aeruginosa, 18 h at 37° C., MH broth
Description: as §1, §2, §3

S. aureus ATCC 25923 [3] = assay: MIC, broth dilution (Example 3); type: cell-based; conditions: Staphylococcus aureus, ATCC25923; 18 h at 37° C., MH broth
Description: as §1, §2, §3

[4] = tested on: Gram+ and Gram- bacteria (S. aureus, E. coli, E. faecalis, P. aeruginosa); assay: Antibiotic activity, summary over the bacterial strains (Examples 3 and 7); type: cell-based; parameters: key to Antibiotic activity: low: Weak antibiotic activity on only 1 of the 3 bacterial strains (i.e. S aureus); high: Strong antibiotic activity on all 3 bacterial strains; Significant antibiotic activity on two bacterial strains; conditions: summary over bacterial strains
Description: as §1, §2, §3
(§4) The properties of tetracycline derivatives, including the compound of formula (Ia) according to the present invention, were compared regarding the neuroprotection, anti-inflammatory effects, anti-aggregant activity, and antibiotic activity. The properties were evaluated as described herein above.
(§5) EC50s, IC50s determined graphically, *Rescue of dopamine neurons from spontaneous oxidative stress; ** TNF α release inhibition under LPS exposure, ^#Weak antibiotic activity on only 1 of the 3 bacterial strains (i.e. S aureus). ##Strong antibiotic activity on all 3 bacterial strains. ^###Significant antibiotic activity on two bacterial strains.

[5] = tested on: dopaminergic neurons (TH+ neurons); assay: Neuroprotection: rescue of dopamine neurons from spontaneous oxidative stress in primary cultures; type: cell-based; conditions: for EC50: Neuron, read-out: Neuroprotection (EC 50 μM)
Description: In primary cultures of dopaminergic neurons, TH+ neurons suffer from oxidative stress, leading to the death of the neurons after a few days. When cultured in the presence of a positive reference (apotransferrin), the dopaminergic neurons survive. The neuroprotective effects of 10 μM of doxycycline (DOX) and of 3 μM or 5 μM of the compound of formula (Ia) according to the present invention were evaluated, compared to the effect of 100 μg/mL of apotransferrin (APO).
as §4, §5

[6] = tested on: microglia cells (TNF α release under LPS); assay: Anti-inflammatory effect in microglia, TNF α release inhibition under LPS exposure; type: cell-based; conditions: TNF α release inhibition under LPS exposure, determined graphically; for IC50: Microglia, read-out: Anti inflammatory effects (IC 50 in μM)
Description: Microglia is in charge of the protection of the neurons. However, under stress conditions, microglia cells are responsible of inflammatory phenomena, leading eventually to the death of the neurons. The anti-inflammatory effects of 5 μM and 20 μM of compound of formula (B) presented in Example 1, of 5 μM and 20 μM of compound of formula (Ia) according to the present invention and of 50 μM of doxycycline (DOX) were evaluated, compared to the effect of 2.5 μM of dexamethasone (DEX). Microglia is in charge of the protection of the neurons. However, under stress conditions, microglia cells are responsible of inflammatory phenomena, leading eventually to the death of the neurons. The anti-inflammatory effects of 10 μM and 20 μM of compound of formula (C) (“10 μM (C)” and “20 μM (C)”) and of 10 μM and 20 μM of compound of formula (Ia) according to the present invention (“10 μM (Ia)” and “20 μM (Ia)”) were evaluated, compared to the effect of 2.5 μM of dexamethasone (“DEX”). The properties of tetracycline derivatives, including the compound of formula (Ia) according to the present invention, were compared regarding the neuroprotection, anti-inflammatory effects, anti-aggregant activity, and antibiotic activity. The properties were evaluated as described herein above. EC50s, IC50s determined graphically, *Rescue of dopamine neurons from spontaneous oxidative stress; ** TNF α release inhibition under LPS exposure, ^#Weak antibiotic activity on only 1 of the 3 bacterial strains (i.e. S aureus). ##Strong antibiotic activity on all 3 bacterial strains. ^###Significant antibiotic activity on two bacterial strains.

dopamine neurons = assay: Neuroprotection in midbrain mouse cultures, survival of TH+ dopamine neurons; type: cell-based; conditions: 10 μM, div14
Description: (§6) Midbrain mouse cultures were subjected to a maturation step until day in vitro (div) 7, and then gradually exposed to phenol red formulated DMEM/Nutrient mixture F12 Ham supplemented with 20 μg/mL of insulin and 2 μM of the NMDA receptor blocker MK-801. Under these conditions, which favor low-level, sustained oxidative insults, and lead ultimately to dopamine cell death, treatments with the compound of formula (Ib) according to the invention (at a concentration ranging from 0.1 to 5 μM) were performed or not, as well as treatments with the reference tetracycline antibiotic doxycycline (DOX; 10 μM) and the glycoprotein apotransferrin (APO; 100 μg/mL), the latter being used as reference neuroprotectant. At div14, cultures were fixed, and then processed for tyrosine hydroxylase (TH) immunocytochemistry to estimate the survival of dopamine neurons.
as §6, with “(Ic)” for “(Ib)”, “with” for “with the reference tetracycline antibiotic doxycycline (DOX; 10 μM) and”

[7] = Brain penetration after single subcutaneous injection; type: in vivo; conditions: mouse, brain and serum, sc; 40 mg/kg single subcutaneous injection, Swiss mice, 30 min to 24 h, n=3; read-out: brain-to-plasma ratio calculated from the area under the concentration time curves
Description: Adult Swiss mice received a single subcutaneous injection of 40 mg/kg of the compound of formula (Ia) according to the present invention, the compound of formula (C), or doxycycline diluted in saline with 5% DMSO and 5% Tween 80 (doxycycline was used as a reference tetracycline). The mice were sacrificed 30 min, 1 h, 8 h, and 24 h after treatment. After sacrifice, brain and serum samples were collected and processed at each time point for tetracycline dosage, using an UHPLC system coupled with a triple quadrupole mass spectrometer LCMS-8030 (Shimadzu Corporation, Kyoto, Japan).

E. coli ATCC 28922 = assay: MIC, standardized protocols (Example 9); type: cell-based; conditions: Escherichia coli, ATCC28922
From the text: (§7) Bacterial strains used in this study were: S. aureus (ATCC25923), E. coli (ATCC28922), E. faecalis (ATCC29212) and P. aeruginosa (PA01). The minimum inhibitory concentrations (MICs) were estimated using standardized protocols (Mawabo et al, J. Infect. Public Health 2015).

E. faecalis ATCC 29212 [8] = assay: MIC, standardized protocols (Example 9); type: cell-based; conditions: Enterococcus faecalis, ATCC29212
From the text: as §7

P. aeruginosa PA01 [9] = assay: MIC, standardized protocols (Example 9); type: cell-based; conditions: Pseudomonas aeruginosa
From the text: as §7

S. aureus ATCC 25923 [10] = assay: MIC, standardized protocols (Example 9); type: cell-based; conditions: Staphylococcus aureus, ATCC25923
From the text: as §7

4 test bacterial strains = assay: Antimicrobial effects, summary over the 4 test bacterial strains (Example 9); type: cell-based
From the text: as §7

[11] = rescue of dopamine neurons from spontaneous oxidative stress, determined graphically

Row | SMILES | Anti aggregant activity at 20 μM (alpha-synuclein) | MIC (E. coli ATCC 25922) [µM] | MIC (E. faecalis ATCC 29212 [1]) [µM] | MIC (P. aeruginosa PA01 [2]) [µM] | MIC (S. aureus ATCC 25923 [3]) [µM] | Neuroprotection (EC 50 μM) [5, 11] | IC50 [6] [µM] | Anti inflammatory effects (IC 50 in μM) [6] | Antibiotic activity [4] | also measured
1 | C[C@H]1c2cccc(O)c2C(=O)C2=C(O)[C@]3(O)C(=O)C(C(N)=O)=C(O)C[C@@H]3[C@@H](O)[C@@H]21 [Compound of formula (B)] | yes | 200 |  | > 2000 | 25 | no |  | no | low | 
2 | CC1(O)c2c(Cl)ccc(O)c2C(=O)C2=C(O)C3C(=O)C(C(N)=O)=C(O)CC3CC21 (stereo not drawn) [Compound of formula (E)] | yes |  |  |  |  |  |  | no | low | EC50 [5]: 2.01 µM
3 | NC(=O)C1=C(O)C[C@@H]2C[C@@H]3Cc4cccc(O)c4C(=O)C3=C(O)[C@]2(O)C1=O [Compound of formula (F), incyclinide] | yes |  |  |  |  | no | 8 |  | Significant^### | 
4 | CC1c2ccc(-c3ccccc3)c(O)c2C(=O)C2=C(O)C3(O)C(=O)C(C(N)=O)=C(O)CC3[C@@H](O)C21 (stereo partly drawn) [Compound of formula (G)] | yes |  |  |  |  | no | 8 |  | low | 
5 | CN(C)[C@@H]1C(O)=C(C(N)=O)C(=O)[C@@]2(O)C(O)=C3C(=O)c4c(O)cccc4[C@@](C)(O)[C@H]3[C@H](O)[C@@H]12 [Oxytetracycline] |  |  |  |  |  |  |  |  |  | MIC (E. coli ATCC 28922): 3.12 µM (≈ 1.44 µg/mL); MIC (E. faecalis ATCC 29212 [8]): 3.12 µM (≈ 1.44 µg/mL); MIC (P. aeruginosa PA01 [9]): 50 µM (≈ 23 µg/mL); MIC (S. aureus ATCC 25923 [10]): 3.12 µM (≈ 1.44 µg/mL); antimicrobial effects against the 4 test bacterial strains (4 test bacterial strains): exerts antimicrobial effects against 3 of the 4 test bacterial strains

More lines, main results first:

Row | Anti aggregant activity at 20 μM (alpha-synuclein) | MIC (E. coli ATCC 25922) [µM] | MIC (E. faecalis ATCC 29212 [1]) [µM] | MIC (P. aeruginosa PA01 [2]) [µM] | MIC (S. aureus ATCC 25923 [3]) [µM] | Neuroprotection (EC 50 μM) [5, 11] | IC50 [6] [µM] | Anti inflammatory effects (IC 50 in μM) [6] | SMILES | Antibiotic activity [4] | also measured
6 | yes | 6.25 (≈ 2.99 µg/mL) | 1.6 (≈ 0.766 µg/mL) | 32 (≈ 15.3 µg/mL) | 1.6 (≈ 0.766 µg/mL) | no | 1 |  | CN(C)[C@@H]1C(O)=C(C(N)=O)C(=O)[C@@]2(O)C(O)=C3C(=O)c4c(O)ccc(Cl)c4[C@@](C)(O)[C@H]3C[C@@H]12 [Chlortetracycline] | high | 
7 | yes |  |  |  |  |  |  | no | CN(C)[C@@H]1C(O)=C(C(N)=O)C(=O)[C@@]2(O)C(O)=C3C(=O)c4c(O)ccc(Cl)c4[C@@H](O)C3CC12 (stereo partly drawn) [Compound of formula (D)] | high^## | EC50 [5, 11]: 1.84 µM
8 |  | 3.12 (≈ 1.45 µg/mL) | 0.4 (≈ 0.186 µg/mL) | 32 (≈ 14.9 µg/mL) | 0.4 (≈ 0.186 µg/mL) |  |  |  | CN(C)[C@@H]1C(O)=C(C(N)=O)C(=O)[C@@]2(O)C(O)=C3C(=O)c4c(O)ccc(Cl)c4[C@@H](O)[C@H]3C[C@@H]12 [Demeclocycline] |  | 
9 | yes | 3.12 (≈ 1.39 µg/mL) | 0.4 (≈ 0.178 µg/mL) | 64 (≈ 28.4 µg/mL) | 0.4 (≈ 0.178 µg/mL) |  | 45 |  | C[C@H]1c2cccc(O)c2C(=O)C2=C(O)[C@]3(O)C(=O)C(C(N)=O)=C(O)[C@@H](N(C)C)[C@@H]3[C@@H](O)[C@@H]21 [Doxycycline] | high | neuroprotective effect ([5]; 10 μM, compared to apotransferrin 100 μg/mL): shows a neuroprotective effect; EC50 [5, 11]: 5.2 µM; neuroprotective effect (survival of dopamine neurons) (dopamine neurons): shows a neuroprotective effect; Kp [7]: 0.11 ± 0.03
